Experimental data: patent publication US20200299783A1 (Board of Regents, The University of Texas System, priority 2019, published 2020)
“Also recorded” adds a separate entry of the source.

Tests used:
[1] = system: ibrutinib-sensitive MCL cell line, Mino; assay: Mitochondria respiration (OCR, Seahorse), ibrutinib-sensitive Mino; type: cell-based, human; conditions: 20 nM for 1 h, vs control, p=0.0832, FIG. 5B
Procedure: (§1) The oxygen consumption rate (OCR) was measured using a Seahorse XF-96 Metabolic Flux Analyzer (Seahorse Bioscience, North Billerica, Mass., USA). Briefly, MCL cells were treated with/without IACS-010759 (20 nM) for 1 h. On the day of analysis, 2-4×10^5 MCL cells/well were adhered to XF 96-well cell culture microplates (Seahorse Biosciences) pre-coated with Cell-Talc (BD Biosciences), by centrifugation at 1,000×g, without brakes for 5 min, then changed to mitochondria stress medium supplemented with 25 mM glucose, 2 mM sodium pyruvate, and 2 mM glutamine (pH 7.4), followed by incubation at 37° C. in a non-CO2 incubator for 1 h. […], FCCP (2 μM), and Rotenone/Antimycin A (0.5 μM), were loaded into drug delivery ports and injected sequentially at the indicated time points. After each injection, 4 time points were recorded with approximately 35 min between each injection. […] over time was normalized to protein content measured by sulforhodamine B (SRB) staining and plotted using Graph-Pad Prism.

[2] = system: ibrutinib-resistant Z-138 and Maver-1 cell lines; assay: Mitochondria membrane potential (TMRE), ibrutinib-resistant MCL cell lines; type: cell-based, human; conditions: 20 nM IACS-010759 and/or 5 μM BPTES for 24 hours; FIGS. 5C & 5D
Procedure: (§2) Mitochondria membrane potential, mitochondria mass, ROS, and apoptosis analysis. MCL cells were seeded and cultured overnight before treatment to reach log phase. Respective cell lines were plated at 2×10^6 cells/well in 6-well plates in phenol-red and pyruvate-free DMEM assay medium containing 5 mM glucose (Sigma), 2 mM GlutaMAX (Gibco, ThermoFisher Scientific), and 5% dialyzed FCS (Gibco). Vehicle, IACS-0107059 (20 nM), or (1-5 μM) BPTES was added and replenished every day until the indicated time points. ROS and mitochondria membrane potential were evaluated 24 hours after treatment. To determine mitochondria membrane potential (Δψm), treated cells were loaded with MitoStatus tetramethylrhodamine, ethyl ester (TMRE) (BD Biosciences) at 37° C. for 15 min and washed with PBS twice to remove residual TMRE. TMRE dye fluorescence retained in the cells was detected by flow cytometry with excitation and emission of 548/574 nm. Data were analyzed with NovoExpress (ACEA Biosciences, San Diego, Calif., USA) or FlowJo10 (Tree Star, Ashland, Oreg., USA).

[3] = system: ibrutinib-resistant MCL cell lines (Z-138 and Maver-1); assay: Cell growth assay, ibrutinib-resistant MCL cell lines; type: cell-based, human
Procedure: (§3) Cells were seeded in triplicate in a 96-well plate with 2×10^5 cells per well and treated with indicated dose of single agent or two compound combination for 24-72 hours. In the last 30 min, 50 μL of CellTiter 96 Aqueous One Solution Reagent were added to the culture wells and incubated at 37° C. in 5% CO2. Light absorbance of formazan was measured at 495 nm on a universal microplate reader equipped with KC4 software (Biotek Instruments, Winooski, Vt., USA).

[4] = system: ibrutinib-resistant high-grade B-cell lymphoma PDX
[5] = system: ibrutinib-sensitive MCL cell lines; assay: ROS levels by flow cytometry, ibrutinib-sensitive MCL cell lines; type: cell-based, human; conditions: FIG. 5E
Procedure: as §2, with “To determine mitochondria membrane potential (Δψm), treated cells were loaded with MitoStatus tetramethylrhodamine, ethyl ester (TMRE) (BD Biosciences) at 37° C. for 15 min and washed with PBS twice to remove residual TMRE.” left out
To measure ROS levels, treated cells were harvested, stained with […] CM-H2DCF-DA (C6827, Molecular Probes, Invitrogen) in PBS for 30 min at 37° C., washed twice with PBS, and analyzed in a flow cytometer (FACS Caliber, BD Biosciences) by recording the green fluorescence of oxidized DCF. The mean fluorescence of 10,000 analyzed cells (corrected for auto fluorescence) was taken as a readout for the intracellular ROS load.

[6] = system: ibrutinib-resistant Maver-1 MCL cells; assay: Apoptosis assay (Annexin-V/PI), Maver-1; type: cell-based, human; conditions: 72 hours, 20 nM IACS-010759 and/or 5 μM BPTES, FIGS. 5F & 11E
Procedure: (§4) Apoptosis assays. Annexin V-binding assay was used to detect the induction of apoptosis. Cells were seeded in 48-well plates with single agent or combination therapy for various times, or with different concentrations for 48 hours. To quantify the percentages of cells undergoing apoptosis, Annexin V-FITC was used. Briefly, cells were washed twice with cold PBS and then suspended in binding buffer at a concentration of 1×10^6 cells/mL. After incubation, 100 μL of the solution was transferred to a 5-mL tube, to which 5 μL of Annexin V-FITC and 5 μL of PI are added. The tube was gently vortexed and incubated for 15 min at room temperature in dark. At the end of the incubation, 300 μL of binding buffer was added. Flow cytometric analysis was performed immediately with a Novocyte Flow Cytometer (ACEA Biosciences, San Diego, Calif., USA). Data were analyzed with NovoExpress (ACEA Biosciences, San Diego, Calif., USA) or FlowJo10 (Tree Star, Ashland, Oreg., USA).

[7] = system: ETC complex I; assay: ETC complex I activity in ibrutinib-resistant MCL cell lines; type: cell-based, human; conditions: Z-138 and Maver-1; 20 nM, 24 hours; FIGS. 11A & 11B
[8] = system: ibrutinib-resistant Z-138 MCL cells; assay: Apoptosis assay (Annexin-V/PI), Z-138; type: cell-based, human; conditions: 72 hours, 20 nM IACS-010759 and/or 5 μM BPTES, FIGS. 5F & 11E
Procedure: as §4

[9] = system: ibrutinib-resistant MCL cell lines, Z-138 and Maver-1; assay: Mitochondria respiration (OCR, Seahorse), ibrutinib-resistant MCL cell lines; type: cell-based, human; conditions: 20 nM for 1 h, FIG. 5B
Procedure: as §1

[10] = system: ibrutinib-sensitive MCL cell lines (Mino and JeKo-1); assay: Cell growth assay, ibrutinib-sensitive MCL cell lines; type: cell-based, human; conditions: 72-hour incubation, FIG. 5A
Procedure: as §3

[11] = system: ibrutinib-resistant MCL PDX
Procedure: Histopathological analysis. Excised tissues from patients and PDX mice were fixed in 10% formalin solution, processed by standard methods, embedded in paraffin, sectioned at 5 μm, and stained with H&E. For immunohistochemical (IHC) evaluation, the tissues are stained with an antibody against human anti-CD20 (Dako, Glostrup, Denmark), counterstained with Harris hematoxylin and examined by standard light microscopy. Samples were analyzed using an Olympus BX51TF microscope equipped with UPlan FL 40×/0.75 and 20×/0.50 objective lenses (Olympus, Melville, N.Y., USA).

Cc1nc(-c2nc(-c3ccc(OC(F)(F)F)cc3)no2)nn1Cc1cccc(N2CCC(S(C)(=O)=O)CC2)c1 [IACS-010759]
OCR (oxygen consumption rate) [1]: little effect; also recorded: No significant difference | mitochondrial potential (Δψm, TMRE) [2]: decreased | inhibition of proliferation (cell growth inhibition) ([3]; Z-138 and Maver-1, 72-hour incubation, FIG. 5A): dose-dependent manner at nanomolar concentrations | difference in IC50 values between the resistant and sensitive cell lines ([3]; cell growth, 72 h, resistant (Z-138, Maver-1) vs sensitive (Mino, JeKo-1)): approximately 10 fold | body weight vs vehicle ([4]; 10 mg/kg oral gavage 5 consecutive days/week, p=0.1964, FIG. 12C): not significantly different | tumor growth by tumor volume ([4]; IACS-010759 10 mg/kg 5 days/week (p<0.0001 vs vehicle), ibrutinib 50 mg/kg daily (p=0.7227), oral gavage, FIG. 12A): significantly inhibited tumor growth | tumor growth by human (32M levels) ([4]; IACS-010759 10 mg/kg 5 days/week (p=0.0003 vs vehicle), ibrutinib 50 mg/kg daily (p=0.6911), FIG. 12B): significantly inhibited tumor growth | survival benefit ([4]; compared with vehicle- and ibrutinib-treated mice, FIG. 12D): greater than 20 days | survival of the ibrutinib-resistant PDX mice ([4]; n=5, vs vehicle p=0.0035, vs ibrutinib p=0.0035, FIG. 12D): significantly prolonged the survival | ROS production [5]: not in the -sensitive cell lines | apoptosis [6]: 23% | ETC complex I activity [7]: reduced | apoptosis [8]: 42% | OCR (oxygen consumption rate) ([9]; vs DMSO-treated control): reduced the OCR | average reduction of OCR compared with the control ([9]; mixed effects regression model, p<0.0001): 358.9406 (95% CI: 321.1402-396.741) | inhibition of proliferation (cell growth inhibition) [10]: very little effect | toxicities ([11]; 10 mg/kg oral gavage 5 consecutive days/week): No apparent toxicities | body weight vs vehicle control ([11]; 10 mg/kg oral gavage 5 consecutive days/week, p=0.3304, FIG. 6C): not significantly different | tumor growth by tumor volume ([11]; 10 mg/kg oral gavage 5 consecutive days/week, vs vehicle, n=5, p<0.0001, FIG. 6A): completely prevented tumor growth | tumor growth by human β2M levels ([11]; 10 mg/kg oral gavage 5 consecutive days/week, vs vehicle, n=5, p<0.0001, FIG. 6B): completely prevented tumor growth | H&E and anti-CD20 staining of dissected tissue post-treatment ([11]; end of treatment, a small number of CD20+ cells remained, FIG. 6D): repopulation of the tumor area with fatty deposits
